Results taken from publication PMC8368196, “Phase 1 study of the ATR inhibitor berzosertib (formerly M6620, VX-970) combined with gemcitabine ± cisplatin in patients with advanced solid tumours” (British Journal of Cancer, 2021).
Where two headings read alike, the source gives them in different places.

Tests used:
[1] = Berzosertib plasma and urine pharmacokinetics (LC-MS/MS, non-compartmental analysis); type: in vivo, human; settings: for AUC(0-inf) / Cmax / clearance / Vd / half-life: iv, plasma; for Vd: read-out: Vss
Procedure: PK assessments for berzosertib were conducted during the monotherapy lead-in and during cycles 1 and 2. Blood samples for berzosertib plasma PK assessments were collected following the single-agent dose, from day 1 of combination dosing (pre-dose, 0.5 h before the end of infusion, at end of infusion and 0.5, 1, 2, 3, 7, 23, 47 and 71 h after the end of infusion), on day 9 (pre-dose) and cycle 2 day 2 (pre-dose and 2 h after the end of infusion). Cumulative urine samples were collected for PK assessments on days 2 and 3 of cycle 1 (pre-dose—3, 3–7, 7–11 and 11–23 h). Berzosertib concentrations were quantified using a validated liquid chromatography tandem-mass spectrometry method and plasma PK was characterised by non-compartmental analyses using Phoenix WinNonlin 6.4 (Certara USA Inc, Princeton, NJ, USA).
Safety data, baseline patient demographics and disease characteristics were summarised descriptively for the combination safety set—which included all enrolled patients who received at least one dose of study drug. PK data were collected in the PK analysis set, defined as all enrolled patients who received at least one dose of berzosertib and provided at least one measurable post-dose sample. […] Standard non-compartmental methods were used to determine PK parameters.

[2] = test system: patients with advanced solid tumours
Excerpt: Part A was a 3 + 3 dose-escalation Phase 1 study evaluating the safety, tolerability, pharmacokinetics (PK) and preliminary efficacy of berzosertib in combination with gemcitabine with or without cisplatin (NCT02157792) (Fig. 1). Patients were enrolled in cohorts of three, with subsequent cohort expansion and dose-escalation decisions based on safety review, available PK data and observations of dose-limiting toxicities (DLTs) until the end of treatment cycle 1.
A 7–14-day lead-in period with single ascending doses of intravenous (i.v.) berzosertib was planned to assess the safety of berzosertib monotherapy; the requirement for the lead-in period was removed after review of safety data both during the study and from a concurrent study of berzosertib monotherapy.[17] […] Based on preclinical studies, a starting dose of 18 mg/m^2 and a dosing regimen of i.v. berzosertib on days 2 and 9, ~24 ± 4 h after dosing with gemcitabine ± cisplatin, was selected.[17] […] Patients received i.v. gemcitabine on days 1 and 8, with or without i.v. cisplatin on day 1. […]
Treatment-emergent adverse events (TEAEs) and DLTs were reported using National Cancer Institute (NCI) Common Terminology Criteria for Adverse Events (CTCAE) version 4.0. […] All AEs of any grade were recorded and followed up until resolution. Safety was evaluated throughout treatment and was used to inform dose-escalation decisions. […]

ATR = test system: ATR; design: method as in PMID 23222511, PMID 25010037; settings: inhibitor of ATR; cited from earlier work
[3] = human, 18 mg/m2, berzosertib 18 mg/m^2 i.v., lead-in period, berzosertib alone, mean (% CV), n = 3
[4] = human, 36 mg/m2, berzosertib 36 mg/m^2 i.v., lead-in period, berzosertib alone, mean (% CV), n = 3
[5] = human, 60 mg/m2, berzosertib 60 mg/m^2 i.v., lead-in period, berzosertib alone, mean (% CV), n = 4
[6] = human, 72 mg/m2, berzosertib 72 mg/m^2 i.v., lead-in period, berzosertib alone, mean (% CV), n = 7
[7] = human, 90 mg/m2, berzosertib 90 mg/m^2 i.v., lead-in period, berzosertib alone, mean (% CV), n = 6
[8] = human, 140 mg/m2, berzosertib 140 mg/m^2 i.v., lead-in period, berzosertib alone, mean (% CV), n = 5
[9] = human, 210 mg/m2, berzosertib 210 mg/m^2 i.v., lead-in period, berzosertib alone, mean (% CV), n = 2

**Q.** Which “Dose proportionality of exposure” value ([1]; from 18 to 210 mg/m^2) does the source give for CNCc1ccc(-c2cc(-c3nc(-c4ccc(S(=O)(=O)C(C)C)cc4)cnc3N)on2)cc1 [Berzosertib] here?
**A.** approximately dose-proportional

**Q.** And the CL renal ([1]; human, intravenous, part A, urine, read-out: Mean renal clearance (converted))?
**A.** 60 mL/min

**Q.** And the AUC(0-inf) [1, 3]?
**A.** 351 ng·h/mL

**Q.** And the Cmax [1, 3]?
**A.** 72 ng/mL

**Q.** What about the clearance [1, 3] of the same compound?
**A.** 1640 mL/min

**Q.** What about the Vd [1, 3] of the same compound?
**A.** 1600 L

**Q.** What about the half-life ([1]; human, 18 mg/m2, berzosertib 18 mg/m^2 i.v., lead-in period, berzosertib alone, mean (% CV), n = 3, read-out: t½ (converted)) of the same compound?
**A.** 14 h

**Q.** What about the AUC(0-inf) [1, 4] of the same compound?
**A.** 913 ng·h/mL

**Q.** What about the Cmax [1, 4] of the same compound?
**A.** 176 ng/mL

**Q.** And the clearance [1, 4]?
**A.** 1500 mL/min

**Q.** What about the Vd [1, 4] of the same compound?
**A.** 1280 L

**Q.** What about the half-life ([1]; human, 36 mg/m2, berzosertib 36 mg/m^2 i.v., lead-in period, berzosertib alone, mean (% CV), n = 3, read-out: t½ (converted)) of the same compound?
**A.** 14.2 h

**Q.** What about the AUC(0-inf) [1, 5] of the same compound?
**A.** 1700 ng·h/mL

**Q.** And the Cmax [1, 5]?
**A.** 345 ng/mL

**Q.** What about the clearance [1, 5] of the same compound?
**A.** 1300 mL/min

**Q.** And the Vd [1, 5]?
**A.** 1280 L

**Q.** And the half-life ([1]; human, 60 mg/m2, berzosertib 60 mg/m^2 i.v., lead-in period, berzosertib alone, mean (% CV), n = 4, read-out: t½ (converted))?
**A.** 15 h

**Q.** What about the AUC(0-inf) [1, 6] of the same compound?
**A.** 2280 ng·h/mL

**Q.** And the Cmax [1, 6]?
**A.** 536 ng/mL

**Q.** And the clearance [1, 6]?
**A.** 1040 mL/min

**Q.** And the Vd [1, 6]?
**A.** 1040 L

**Q.** What about the half-life ([1]; human, 72 mg/m2, berzosertib 72 mg/m^2 i.v., lead-in period, berzosertib alone, mean (% CV), n = 7, read-out: t½ (converted)) of the same compound?
**A.** 15.2 h

**Q.** And the AUC(0-inf) [1, 7]?
**A.** 2370 ng·h/mL

**Q.** And the Cmax [1, 7]?
**A.** 451 ng/mL

**Q.** And the clearance [1, 7]?
**A.** 1240 mL/min

**Q.** What about the Vd [1, 7] of the same compound?
**A.** 1320 L

**Q.** What about the half-life ([1]; human, 90 mg/m2, berzosertib 90 mg/m^2 i.v., lead-in period, berzosertib alone, mean (% CV), n = 6, read-out: t½ (converted)) of the same compound?
**A.** 17.2 h

**Q.** What about the AUC(0-inf) [1, 8] of the same compound?
**A.** 4550 ng·h/mL

**Q.** And the Cmax [1, 8]?
**A.** 817 ng/mL

**Q.** And the clearance [1, 8]?
**A.** 1010 mL/min

**Q.** What about the Vd [1, 8] of the same compound?
**A.** 1150 L

**Q.** And the half-life ([1]; human, 140 mg/m2, berzosertib 140 mg/m^2 i.v., lead-in period, berzosertib alone, mean (% CV), n = 5, read-out: t½ (converted))?
**A.** 17 h

**Q.** What about the AUC(0-inf) [1, 9] of the same compound?
**A.** 6130 ng·h/mL

**Q.** What about the Cmax [1, 9] of the same compound?
**A.** 808 ng/mL

**Q.** What about the clearance [1, 9] of the same compound?
**A.** 1270 mL/min

**Q.** And the Vd [1, 9]?
**A.** 1550 L

**Q.** What about the half-life ([1]; human, 210 mg/m2, berzosertib 210 mg/m^2 i.v., lead-in period, berzosertib alone, mean (% CV), n = 2, read-out: t½ (converted)) of the same compound?
**A.** 16.8 h

**Q.** And the half-life ([1]; human, i.v., 18–210 mg/m^2, read-out: Apparent terminal half-life (converted))?
**A.** ~17 h

**Q.** What about the “PK when administered ~24 h after gemcitabine, with or without cisplatin, versus berzosertib alone” value ([1]; in vivo) of the same compound?
**A.** not significantly different

**Q.** And the “Mean percentage excreted in the urine” value ([1]; part A)?
**A.** 5%

**Q.** What about the Accumulation ([1]; weekly administration) of the same compound?
**A.** not observed

**Q.** What about the “Trends in laboratory results (serum chemistry, haematology, urinalysis), vital signs or ECG parameters attributable to treatment” value ([2]; in vivo) of the same compound?
**A.** no clinically meaningful trends

**Q.** What about the “Patients with acute hypersensitivity” value ([2]; on second infusion of berzosertib, no clear relationship to dose) of the same compound?
**A.** < 5%

**Q.** What about the IC50 (ATR) of the same compound?
**A.** 19 nM
